Reference: the supplement of paper PMC11208160
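Further: IS621 bridge recombinase in Escherichia coli cells against a fixed T5 target plasmid.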

Assay: recombinant UMI read abundance after kanamycin selection (control-corrected) (log10(CPM+1)); higher = more efficient recombination; extreme values may be limits of the assay; sequences stand for … in AGTGCAGAGAAAATCGGCCAGTTTTCTCTGCCTGCAGTCCGCATGCCGTGGGACCCCTTGGGTTCTAACCTGTTGCCTAGATTTATGCAGCGGACTGCCTTTCTCCCAAAGTGATAAACCGG…AGGTTGGTTTCACT; site = the 11-nt donor
Outline: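 In a pooled Escherichia coli screen for the IS621 bridge recombinase, donor and donor-binding-loop pairs were each placed with a 12-nt UMI on a plasmid bearing a promoterless kanamycin gene. This library was co-electroporated with a target plasmid encoding a fixed target and T7-inducible recombinase, and cells were plated either on IPTG (0.07 mM) plus kanamycin or without selection, in two replicates each. Recombinant UMIs were PCR-amplified across the donor–target junction and sequenced, and counts were converted to CPM, averaged over replicates, scaled by control-derived factors and reported as log10(CPM+1).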
For “CGCAATCCATGGACCGGTTTTCCCGGTAATCCGTATTTGAA (site CGCAATCCTTT)”, the “recombinant UMI read abundance (log10)” value was 1.27.
In the case of “CGCAATCCATGGACCGGTTTTCCCGGTAATCCGTATTTGAA (site GGCAATCCTTT)”, the “recombinant UMI read abundance (log10)” value is reported as 0.00324.
For “CGCAATCCATGGACCGGTTTTCCCGGTAATCCGTATTTGAA (site TGCAATCCTTT)”, the “recombinant UMI read abundance (log10)” value was 0.00288.
In the case of “CGCACCTCATGGACCGGTTTTCCCGGTAATCCGTATTTGGG (site CGCACCTCTCC)”, the “recombinant UMI read abundance (log10)” value is reported as 0.526.
In the case of “CGCAGACCATGGACCGGTTTTCCCGGTAATCCGTATTTGGG (site CGCAGACCTCC)”, the “recombinant UMI read abundance (log10)” value is reported as 0.0135.
For “CGCAGTACATGGACCGGTTTTCCCGGTAATCCGTATTTGCT (site CGCAGTACTAG)”, the “recombinant UMI read abundance (log10)” value was 1.44.
With “CGCAGTACATGGACCGGTTTTCCCGGTAATCCGTATTTGCT (site CGCCGTACTAG)” the “recombinant UMI read abundance (log10)” value was 0.
In the case of “CGCAGTACATGGACCGGTTTTCCCGGTAATCCGTATTTGCT (site CGCGGTACTAG)”, the “recombinant UMI read abundance (log10)” value is reported as 0.749.
In the case of “CGCAGTACATGGACCGGTTTTCCCGGTAATCCGTATTTGCT (site CGCTGTACTAG)”, the “recombinant UMI read abundance (log10)” value is reported as 0.
With “CGCAGTCCATGGACCGGTTTTCCCGGTAATCCGTATTTGAG (site CGCAGTCCTCT)” the “recombinant UMI read abundance (log10)” value was 0.438.
For “CGCATATCATGGACCGGTTTTCCCGGTAATCCGTATTTGTC (site CACATATCTGA)”, the “recombinant UMI read abundance (log10)” value was 0.
With “CGCATATCATGGACCGGTTTTCCCGGTAATCCGTATTTGTC (site CCCATATCTGA)” the “recombinant UMI read abundance (log10)” value was 0.
For “CGCATATCATGGACCGGTTTTCCCGGTAATCCGTATTTGTC (site CGCATATCTGA)”, the “recombinant UMI read abundance (log10)” value was 1.86.
In the case of “CGCATATCATGGACCGGTTTTCCCGGTAATCCGTATTTGTC (site CTCATATCTGA)”, the “recombinant UMI read abundance (log10)” value is reported as 0.436.
For “CGCATGTCATGGACCGGTTTTCCCGGTAATCCGTATTTGTT (site CGCATGTCTAA)”, the “recombinant UMI read abundance (log10)” value was 2.52.
In the case of “CGCCCATCATGGACCGGTTTTCCCGGTAATCCGTATTTGCT (site CGATCATCTAG)”, the “recombinant UMI read abundance (log10)” value is reported as 0.57.
In the case of “CGCCCATCATGGACCGGTTTTCCCGGTAATCCGTATTTGCT (site CGCCCATCTAG)”, the “recombinant UMI read abundance (log10)” value is reported as 2.54.
For “CGCCCTACATGGACCGGTTTTCCCGGTAATCCGTATTTGCT (site CGCCATACTAG)”, the “recombinant UMI read abundance (log10)” value was 0.
With “CGCCCTACATGGACCGGTTTTCCCGGTAATCCGTATTTGCT (site CGCCCTACTAG)” the “recombinant UMI read abundance (log10)” value was 1.28.
In the case of “CGCCCTACATGGACCGGTTTTCCCGGTAATCCGTATTTGCT (site CGCCGTACTAG)”, the “recombinant UMI read abundance (log10)” value is reported as 0.0214.
For “CGCCCTACATGGACCGGTTTTCCCGGTAATCCGTATTTGCT (site CGCCTTACTAG)”, the “recombinant UMI read abundance (log10)” value was 0.
For “CGCCCTCCATGGACCGGTTTTCCCGGTAATCCGTATTTGAT (site CGCCCTCCTAT)”, the “recombinant UMI read abundance (log10)” value was 0.51.
For “CGCCGTACATGGACCGGTTTTCCCGGTAATCCGTATTTGCG (site CGCCGTACTAG)”, the “recombinant UMI read abundance (log10)” value was 0.
With “CGCCGTACATGGACCGGTTTTCCCGGTAATCCGTATTTGCG (site CGCCGTACTCG)” the “recombinant UMI read abundance (log10)” value was 1.13.
In the case of “CGCCGTACATGGACCGGTTTTCCCGGTAATCCGTATTTGCG (site CGCCGTACTGG)”, the “recombinant UMI read abundance (log10)” value is reported as 0.
With “CGCCGTACATGGACCGGTTTTCCCGGTAATCCGTATTTGCG (site CGCCGTACTTG)” the “recombinant UMI read abundance (log10)” value was 0.00693.
For “CGCCTAGCATGGACCGGTTTTCCCGGTAATCCGTATTTGTT (site AGCCTAGCTAA)”, the “recombinant UMI read abundance (log10)” value was 0.00606.
In the case of “CGCCTAGCATGGACCGGTTTTCCCGGTAATCCGTATTTGTT (site CGCCTAGCTAA)”, the “recombinant UMI read abundance (log10)” value is reported as 0.
With “CGCCTAGCATGGACCGGTTTTCCCGGTAATCCGTATTTGTT (site GGCCTAGCTAA)” the “recombinant UMI read abundance (log10)” value was 0.00975.
With “CGCCTAGCATGGACCGGTTTTCCCGGTAATCCGTATTTGTT (site TGCCTAGCTAA)” the “recombinant UMI read abundance (log10)” value was 0.00877.
For “CGCGATTCATGGACCGGTTTTCCCGGTAATCCGTATTTGGA (site CGCGATTCTTC)”, the “recombinant UMI read abundance (log10)” value was 2.31.
In the case of “CGCGCGCCATGGACCGGTTTTCCCGGTAATCCGTATTTGTT (site CGCGCGCCTAA)”, the “recombinant UMI read abundance (log10)” value is reported as 0.0124.
In the case of “CGCGGCCCATGGACCGGTTTTCCCGGTAATCCGTATTTGTT (site CACGGCCCTAA)”, the “recombinant UMI read abundance (log10)” value is reported as 0.167.
In the case of “CGCGGCCCATGGACCGGTTTTCCCGGTAATCCGTATTTGTT (site CCCGGCCCTAA)”, the “recombinant UMI read abundance (log10)” value is reported as 0.00728.
With “CGCGGCCCATGGACCGGTTTTCCCGGTAATCCGTATTTGTT (site CGCGGCCCTAA)” the “recombinant UMI read abundance (log10)” value was 0.202.
For “CGCGGCCCATGGACCGGTTTTCCCGGTAATCCGTATTTGTT (site CTCGGCCCTAA)”, the “recombinant UMI read abundance (log10)” value was 0.00821.
In the case of “CGCGGCTCATGGACCGGTTTTCCCGGTAATCCGTATTTGGC (site CGCGGCTCTGC)”, the “recombinant UMI read abundance (log10)” value is reported as 2.33.
In the case of “CGCGGTCCATGGACCGGTTTTCCCGGTAATCCGTATTTGCA (site CACGGTCCTTG)”, the “recombinant UMI read abundance (log10)” value is reported as 0.
With “CGCGGTCCATGGACCGGTTTTCCCGGTAATCCGTATTTGCA (site CCCGGTCCTTG)” the “recombinant UMI read abundance (log10)” value was 0.3.
In the case of “CGCGGTCCATGGACCGGTTTTCCCGGTAATCCGTATTTGCA (site CGCGGTCCTTG)”, the “recombinant UMI read abundance (log10)” value is reported as 1.12.
For “CGCGGTCCATGGACCGGTTTTCCCGGTAATCCGTATTTGCA (site CTCGGTCCTTG)”, the “recombinant UMI read abundance (log10)” value was 0.
In the case of “CGCTAGGCATGGACCGGTTTTCCCGGTAATCCGTATTTGAC (site CGCTAGGCTGT)”, the “recombinant UMI read abundance (log10)” value is reported as 1.08.
With “CGCTCATCATGGACCGGTTTTCCCGGTAATCCGTATTTGGT (site CGATCATCTAG)” the “recombinant UMI read abundance (log10)” value was 0.393.
For “CGCTCATCATGGACCGGTTTTCCCGGTAATCCGTATTTGGT (site CGCTCATCTAC)”, the “recombinant UMI read abundance (log10)” value was 1.17.
For “CGGAAGACATGGACCGGTTTTCCCGGTAATCCGTATTTGCA (site AGGAAGACTTG)”, the “recombinant UMI read abundance (log10)” value was 0.742.
For “CGGAAGACATGGACCGGTTTTCCCGGTAATCCGTATTTGCA (site CGGAAGACTTG)”, the “recombinant UMI read abundance (log10)” value was 1.73.
In the case of “CGGAAGACATGGACCGGTTTTCCCGGTAATCCGTATTTGCA (site GGGAAGACTTG)”, the “recombinant UMI read abundance (log10)” value is reported as 0.
In the case of “CGGAAGACATGGACCGGTTTTCCCGGTAATCCGTATTTGCA (site TGGAAGACTTG)”, the “recombinant UMI read abundance (log10)” value is reported as 0.259.
With “CGGAATACATGGACCGGTTTTCCCGGTAATCCGTATTTGTC (site CGGAATACTGA)” the “recombinant UMI read abundance (log10)” value was 1.64.
In the case of “CGGAATACATGGACCGGTTTTCCCGGTAATCCGTATTTGTC (site CGGAATCCTAA)”, the “recombinant UMI read abundance (log10)” value is reported as 0.0129.
In the case of “CGGAATCCATGGACCGGTTTTCCCGGTAATCCGTATTTGGG (site CGGAATCCTAA)”, the “recombinant UMI read abundance (log10)” value is reported as 0.
With “CGGAATCCATGGACCGGTTTTCCCGGTAATCCGTATTTGGG (site CGGAATCCTCC)” the “recombinant UMI read abundance (log10)” value was 0.0126.
For “CGGAATTCATGGACCGGTTTTCCCGGTAATCCGTATTTGCT (site CGGAATCCTAA)”, the “recombinant UMI read abundance (log10)” value was 0.00849.
For “CGGAATTCATGGACCGGTTTTCCCGGTAATCCGTATTTGCT (site CGGAATTCTAG)”, the “recombinant UMI read abundance (log10)” value was 2.45.
For “CGGACATCATGGACCGGTTTTCCCGGTAATCCGTATTTGAT (site CGGACATCTAA)”, the “recombinant UMI read abundance (log10)” value was 0.359.
For “CGGACATCATGGACCGGTTTTCCCGGTAATCCGTATTTGAT (site CGGACATCTAC)”, the “recombinant UMI read abundance (log10)” value was 0.605.
For “CGGACATCATGGACCGGTTTTCCCGGTAATCCGTATTTGAT (site CGGACATCTAG)”, the “recombinant UMI read abundance (log10)” value was 0.
For “CGGACATCATGGACCGGTTTTCCCGGTAATCCGTATTTGAT (site CGGACATCTAT)”, the “recombinant UMI read abundance (log10)” value was 1.84.
In the case of “CGGACATCATGGACCGGTTTTCCCGGTAATCCGTATTTGCC (site CGGACATCTAG)”, the “recombinant UMI read abundance (log10)” value is reported as 0.305.
For “CGGACATCATGGACCGGTTTTCCCGGTAATCCGTATTTGCC (site CGGACATCTCG)”, the “recombinant UMI read abundance (log10)” value was 0.00908.
In the case of “CGGACATCATGGACCGGTTTTCCCGGTAATCCGTATTTGCC (site CGGACATCTGG)”, the “recombinant UMI read abundance (log10)” value is reported as 2.66.
With “CGGACATCATGGACCGGTTTTCCCGGTAATCCGTATTTGCC (site CGGACATCTTG)” the “recombinant UMI read abundance (log10)” value was 0.
For “CGGACATCATGGACCGGTTTTCCCGGTAATCCGTATTTGCT (site AGGACATCTAG)”, the “recombinant UMI read abundance (log10)” value was 0.695.
In the case of “CGGACATCATGGACCGGTTTTCCCGGTAATCCGTATTTGCT (site CAGACATCTAG)”, the “recombinant UMI read abundance (log10)” value is reported as 1.53.
In the case of “CGGACATCATGGACCGGTTTTCCCGGTAATCCGTATTTGCT (site CCGACATCTAG)”, the “recombinant UMI read abundance (log10)” value is reported as 0.954.
For “CGGACATCATGGACCGGTTTTCCCGGTAATCCGTATTTGCT (site CGAACATCTAG)”, the “recombinant UMI read abundance (log10)” value was 1.51.
With “CGGACATCATGGACCGGTTTTCCCGGTAATCCGTATTTGCT (site CGCACATCTAG)” the “recombinant UMI read abundance (log10)” value was 0.
With “CGGACATCATGGACCGGTTTTCCCGGTAATCCGTATTTGCT (site CGGAAATCTAG)” the “recombinant UMI read abundance (log10)” value was 0.
